Data on 24 molecules can be found in patent US11254663B2 (BRISTOL-MYERS SQUIBB COMPANY, priority 2019, dated 2022).

Sequence of FXR (Q96RI1 262-486): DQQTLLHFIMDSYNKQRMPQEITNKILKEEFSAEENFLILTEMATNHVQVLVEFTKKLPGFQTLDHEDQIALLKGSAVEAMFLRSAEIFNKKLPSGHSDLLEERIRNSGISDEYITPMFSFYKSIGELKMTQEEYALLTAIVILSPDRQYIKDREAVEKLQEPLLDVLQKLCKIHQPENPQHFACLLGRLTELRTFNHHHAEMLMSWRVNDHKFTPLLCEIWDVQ

This test addresses FXR (Homo sapiens (Human), UniProt Q96RI1). The test can be described thus: FXR EC50 (FXR agonist potency reported with each Example). Format: cell-based.
On to `O=C(C1CC(F)(F)C1)N(CC12CCC(c3nc(C4CC4)no3)(CC1)CC2)c1cccc(-c2cc(C3CC3)on2)c1` [Example 60, N-((4-(3-cyclopropyl-1,2,4-oxadiazol-5-yl)bicyclo[2.2.2]octan-1-yl)methyl)-N-(3-(5-cyclopropylisoxazol-3-yl)phenyl)-3,3-difluorocyclobutane-1-carboxamide], for which a half-maximal effect (EC50) was put at 230 nM.

For `O=C(N(CC12CCC(c3nc(CC4CC4)no3)(CC1)CC2)c1cccc(-c2nc(CC3CC3)no2)c1)C12CC(F)(C1)C2` [Example 61, N-((4-(3-(cyclopropylmethyl)-1,2,4-oxadiazol-5-yl)bicyclo[2.2.2]octan-1-yl)methyl)-N-(3-(3-(cyclopropylmethyl)-1,2,4-oxadiazol-5-yl)phenyl)-3-fluorobicyclo[1.1.1]pentane-1-carboxamide], the EC50 worked out at 99 nM.

`O=C(C1CCC(F)(F)C1)N(CC12CCC(c3nc(CC4CC4)no3)(CC1)CC2)c1cccc(-c2nc(CC3CC3)no2)c1` (stereo not drawn) [Example 62, N-((4-(3-(cyclopropylmethyl)-1,2,4-oxadiazol-5-yl)bicyclo[2.2.2]octan-1-yl)methyl)-N-(3-(3-(cyclopropylmethyl)-1,2,4-oxadiazol-5-yl)phenyl)-3,3-difluorocyclopentane-1-carboxamide] came in with a half-maximal effective concentration (EC50) of 363 nM.

With `O=C(C1CC(F)(F)C1)N(CC12CCC(c3nc(CC4CC4)no3)(CC1)CC2)c1cccc(-c2nc(CC3CC3)no2)c1` [Example 63, N-((4-(3-(cyclopropylmethyl)-1,2,4-oxadiazol-5-yl)bicyclo[2.2.2]octan-1-yl)methyl)-N-(3-(3-(cyclopropylmethyl)-1,2,4-oxadiazol-5-yl)phenyl)-3,3-difluorocyclobutane-1-carboxamide], the half-maximal effective concentration (EC50) is 562 nM.

In turn, `O=C(C1CCC1)N(CC12CCC(c3nc(CC4CC4)no3)(CC1)CC2)c1cccc(-c2nc(CC3CC3)no2)c1` [Example 64, N-((4-(3-(cyclopropylmethyl)-1,2,4-oxadiazol-5-yl)bicyclo[2.2.2]octan-1-yl)methyl)-N-(3-(3-(cyclopropylmethyl)-1,2,4-oxadiazol-5-yl)phenyl)cyclobutanecarboxamide] showed an EC50 of 524 nM.

Turning to `O=C(N(CC12CCC(c3nc(C4CC4)no3)(CC1)CC2)c1cccc(-c2nc(CC3CC3)no2)c1)C12CC(F)(C1)C2` [Example 65, N-((4-(3-cyclopropyl-1,2,4-oxadiazol-5-yl)bicyclo[2.2.2]octan-1-yl)methyl)-N-(3-(3-(cyclopropylmethyl)-1,2,4-oxadiazol-5-yl)phenyl)-3-fluorobicyclo[1.1.1]pentane-1-carboxamide], a half-maximal effect (EC50) was put at 142 nM.

In turn, `O=C(C1CCC1)N(CC12CCC(c3nc(C4CC4)no3)(CC1)CC2)c1cccc(-c2nc(CC3CC3)no2)c1` [Example 66, N-((4-(3-cyclopropyl-1,2,4-oxadiazol-5-yl)bicyclo[2.2.2]octan-1-yl)methyl)-N-(3-(3-(cyclopropylmethyl)-1,2,4-oxadiazol-5-yl)phenyl)cyclobutanecarboxamide] showed a 50% effective concentration (EC50) of 303 nM.

In turn, `O=C(C1CCC(F)(F)C1)N(CC12CCC(c3nc(C4CC4)no3)(CC1)CC2)c1cccc(-c2nc(CC3CC3)no2)c1` (stereo not drawn) [Example 67, N-((4-(3-cyclopropyl-1,2,4-oxadiazol-5-yl)bicyclo[2.2.2]octan-1-yl)methyl)-N-(3-(3-(cyclopropylmethyl)-1,2,4-oxadiazol-5-yl)phenyl)-3,3-difluorocyclopentane-1-carboxamide] returned a concentration for a half-maximal effect (EC50) of 202 nM. This EC50 is about 1.5-fold lower than that of the molecule before.

With `O=C(N(CC12CCC(c3nc(CC4CC4)no3)(CC1)CC2)c1cccc(-c2nc(C3CC3)no2)c1)C12CC(F)(C1)C2` [Example 68, N-(3-(3-cyclopropyl-1,2,4-oxadiazol-5-yl)phenyl)-N-((4-(3-(cyclopropylmethyl)-1,2,4-oxadiazol-5-yl)bicyclo[2.2.2]octan-1-yl)methyl)-3-fluorobicyclo[1.1.1]pentane-1-carboxamide], the concentration for a half-maximal effect (EC50) was 110 nM.

Molecule `O=C(C1CCC(F)(F)C1)N(CC12CCC(c3nc(CC4CC4)no3)(CC1)CC2)c1cccc(-c2nc(C3CC3)no2)c1` (stereo not drawn) [Example 69, N-(3-(3-cyclopropyl-1,2,4-oxadiazol-5-yl)phenyl)-N-((4-(3-(cyclopropylmethyl)-1,2,4-oxadiazol-5-yl)bicyclo[2.2.2]octan-1-yl)methyl)-3,3-difluorocyclopentane-1-carboxamide] displayed an EC50 of 474 nM. Against the preceding molecule, the EC50 is about 4.3-fold higher.

As to `O=C(C1CC(F)(F)C1)N(CC12CCC(c3nc(CC4CC4)no3)(CC1)CC2)c1cccc(-c2nc(C3CC3)no2)c1` [Example 70, N-(3-(3-cyclopropyl-1,2,4-oxadiazol-5-yl)phenyl)-N-((4-(3-(cyclopropylmethyl)-1,2,4-oxadiazol-5-yl)bicyclo[2.2.2]octan-1-yl)methyl)-3,3-difluorocyclobutane-1-carboxamide], the EC50 came to 598 nM.

Molecule `O=C(C1CCC1)N(CC12CCC(c3nc(CC4CC4)no3)(CC1)CC2)c1cccc(-c2nc(C3CC3)no2)c1` [Example 71, N-(3-(3-cyclopropyl-1,2,4-oxadiazol-5-yl)phenyl)-N-((4-(3-(cyclopropylmethyl)-1,2,4-oxadiazol-5-yl)bicyclo[2.2.2]octan-1-yl)methyl)cyclobutanecarboxamide] yielded an EC50 of 406 nM.

The molecule `COCc1nc(-c2cccc(N(CC34CCC(c5nc(C6CC6)no5)(CC3)CC4)C(=O)C34CC(F)(C3)C4)c2)cs1` [Example 72, N-((4-(3-cyclopropyl-1,2,4-oxadiazol-5-yl)bicyclo[2.2.2]octan-1-yl)methyl)-3-fluoro-N-(3-(2-(methoxymethyl)thiazol-4-yl)phenyl)bicyclo[1.1.1]pentane-1-carboxamide] came in with a concentration giving a half-maximal response (EC50) of 166 nM.

Molecule `COCc1nc(-c2cccc(N(CC34CCC(c5nc(C6CC6)no5)(CC3)CC4)C(=O)C3CC(C(F)F)C3)c2)cs1` (stereo not drawn) [Example 73, N-((4-(3-cyclopropyl-1,2,4-oxadiazol-5-yl)bicyclo[2.2.2]octan-1-yl)methyl)-3-(difluoromethyl)-N-(3-(2-(methoxymethyl)thiazol-4-yl)phenyl)cyclobutane-1-carboxamide] registered a concentration for a half-maximal effect (EC50) of 341 nM.

Regarding `COCc1nc(-c2cccc(N(CC34CCC(c5nc(C6CC6)no5)(CC3)CC4)C(=O)C3CCC(F)(F)C3)c2)cs1` (stereo not drawn) [Example 74, N-((4-(3-cyclopropyl-1,2,4-oxadiazol-5-yl)bicyclo[2.2.2]octan-1-yl)methyl)-3,3-difluoro-N-(3-(2-(methoxymethyl)thiazol-4-yl)phenyl)cyclopentane-1-carb oxamide], the EC50 was determined as 220 nM. Compared with the last molecule, the EC50 is about 1.6-fold lower.

As for `Cn1nc(-c2cccc(N(CC34CCC(c5nc(C6CC6)no5)(CC3)CC4)C(=O)C34CC(F)(C3)C4)c2)cc1C1CC1` [Example 75, N-((4-(3-cyclopropyl-1,2,4-oxadiazol-5-yl)bicyclo[2.2.2]octan-1-yl)methyl)-N-(3-(5-cyclopropyl-1-methyl-1H-pyrazol-3-yl)phenyl)-3-fluorobicyclo[1.1.1]pentane-1-carboxamide], the concentration for a half-maximal effect (EC50) stood at 247 nM.

As to `Cn1nc(-c2cccc(N(CC34CCC(c5nc(C6CC6)no5)(CC3)CC4)C(=O)C3CC(F)(F)C3)c2)cc1C1CC1` [Example 76, N-((4-(3-cyclopropyl-1,2,4-oxadiazol-5-yl)bicyclo[2.2.2]octan-1-yl)methyl)-N-(3-(5-cyclopropyl-1-methyl-1H-pyrazol-3-yl)phenyl)-3,3-difluorocyclobutane-1-carboxamide], the half-maximal effective concentration (EC50) was 610 nM. Against the preceding molecule, the EC50 is about 2.5-fold higher.

The molecule `Cn1nc(-c2cccc(N(CC34CCC(c5nc(C6CC6)no5)(CC3)CC4)C(=O)C3CCC(F)(F)C3)c2)cc1C1CC1` (stereo not drawn) [Example 77, N-((4-(3-cyclopropyl-1,2,4-oxadiazol-5-yl)bicyclo[2.2.2]octan-1-yl)methyl)-N-(3-(5-cyclopropyl-1-methyl-1H-pyrazol-3-yl)phenyl)-3,3-difluorocyclopentane-1-carboxamide] came in with an EC50 of 429 nM.

As for `Cn1nc(-c2cccc(N(CC34CCC(c5nc(C6CC6)no5)(CC3)CC4)C(=O)C3CC(C(F)F)C3)c2)cc1C1CC1` (stereo not drawn) [Example 78, N-((4-(3-cyclopropyl-1,2,4-oxadiazol-5-yl)bicyclo[2.2.2]octan-1-yl)methyl)-N-(3-(5-cyclopropyl-1-methyl-1H-pyrazol-3-yl)phenyl)-3-(difluoromethyl)cyclobutane-1-carboxamide], it took 607 nM to reach a half-maximal effect (EC50).

Take `COC(C)(C)c1coc(-c2cccc(N(CC34CCC(c5nc(C6CC6)no5)(CC3)CC4)C(=O)C34CC(F)(C3)C4)c2)n1` [Example 79, N-((4-(3-cyclopropyl-1,2,4-oxadiazol-5-yl)bicyclo[2.2.2]octan-1-yl)methyl)-3-fluoro-N-(3-(4-(2-methoxypropan-2-yl)oxazol-2-yl)phenyl)bicyclo[1.1.1]pentane-1-carboxamide]: the EC50 is 194 nM.

`CCn1cc(-c2cccc(N(CC34CCC(c5nc(C6CC6)no5)(CC3)CC4)C(=O)C34CC(F)(C3)C4)c2)oc1=O` [Example 80, N-((4-(3-cyclopropyl-1,2,4-oxadiazol-5-yl)bicyclo[2.2.2]octan-1-yl)methyl)-N-(3-(3-ethyl-2-oxo-2,3-dihydrooxazol-5-yl)phenyl)-3-fluorobicyclo[1.1.1]pentane-1-carboxamide]: the 50% effective concentration (EC50) was 265 nM.

As to `CCn1cc(-c2cccc(N(CC34CCC(c5nc(C6CC6)no5)(CC3)CC4)C(=O)C3CC(F)(F)C3)c2)oc1=O` [Example 81, N-((4-(3-cyclopropyl-1,2,4-oxadiazol-5-yl)bicyclo[2.2.2]octan-1-yl)methyl)-N-(3-(3-ethyl-2-oxo-2,3-dihydrooxazol-5-yl)phenyl)-3,3-difluorocyclobutane-1-carboxamide], the EC50 was found to be 945 nM.

Consider `O=C(N(CC12CCC(c3nc(C4CC4)co3)(CC1)CC2)c1cccc(-c2cnc(C3CC3)o2)c1)C12CC(F)(C1)C2` [Example 82, N-((4-(4-cyclopropyloxazol-2-yl)bicyclo[2.2.2]octan-1-yl)methyl)-N-(3-(2-cyclopropyloxazol-5-yl)phenyl)-3-fluorobicyclo[1.1.1]pentane-1-carboxamide], for which the EC50 amounted to 48 nM.

The molecule `O=C(C1CC(F)(F)C1)N(CC12CCC(c3nc(C4CC4)co3)(CC1)CC2)c1cccc(-c2cnc(C3CC3)o2)c1` [Example 83, N-((4-(4-cyclopropyloxazol-2-yl)bicyclo[2.2.2]octan-1-yl)methyl)-N-(3-(2-cyclopropyloxazol-5-yl)phenyl)-3,3-difluorocyclobutane-1-carboxamide] came in with an EC50 of 590 nM.

The term EC50 denotes the concentration giving half of the maximal effect. The low end stands for a more potent agent, the high end for a less potent agent.
